Assay results: patent US20120208883A1, “TREATMENT OF ONCOLOGICAL DISEASES” (priority 2008, published 2012)

What was measured:
tumour mass = conditions: WO/2000/06134; ALC 100 mg/kg orally; cited from earlier work
[1] = system: NCI-H460 non-small cell lung carcinoma; assay: Antitumor activity of L-carnitine in combination with cisplatin against NCI-H460; type: in vivo
Method: Treatments started three days after tumor injection. To evaluate the antitumor activity, tumor diameters were measured with a Vernier caliper. […] When tumors reached a volume of 1-2 cm^3, mice were sacrificed by cervical dislocation. Body weight recording was carried out through the study and mortality was noted.

[2] = system: SJSA-1 (with amplification of mdm2) osteosarcoma cells; assay: Antiproliferative activity on SJSA-1 osteosarcoma cells (MTT assay); type: cell-based
Method: The evaluation of antiproliferative activity was carried out by MTT assay.

[3] = system: NCI-H1650 NSCLC tumor cell line; assay: Anti-proliferative activity in vitro (MTT assay), NCI-H1650; type: cell-based; conditions: 10 mM, 6 days of treatment, 0.1% FBS
Method: (§1) The anti-proliferative activity of acetyl L-carnitine was evaluated in two different NSCLC tumor cell lines (NCI-H460 and NCI-H1650) and on one ovarian tumor cell line (A2780/Dx multidrug-resistant).
(§2) Cells were seeded in 96-well tissue culture plates and treated for three days (NCI-H460 NSCLC) or six days (NCI-H1650 NSCLC and A2780/Dx cells) with acetyl L-carnitine (10 mM in 0.1% FBS). To test the effect of acetyl L-carnitine on cell growth, tumor cells were seeded in 96-well tissue culture plates at approximately 10% confluence and were allowed to attach and recover for at least 24 h. Tumor cells were exposed to treatment protocol for 72 h or 6 days in 0.1% FBS at 37° C., then medium culture (RPMI 1640) was removed and 100 μl/well of medium were added containing 25 μl/well of a solution 5 mg/ml tetrazolium salt (MTT) assay, (final 1 mg/ml). Plates were kept at 37° C. in incubator with 5% CO2 for 2 h for the formation of blue crystals. […] The cell survival was determined as optical density by a Multiskan spectrofluorimeter at 570 nm (Hansen M. B., et al., J. Immunol. Methods, 1989, 119, 203). Percentage of tumor cell inhibition in the presence of 10 mM acetyl L-carnitine was evaluated and compared with that obtained in the absence of acetyl L-carnitine applying the statistical comparison by means of the Mann-Whitney test.

[4] = system: NCI-H460 metastatic clone; assay: Anti-tumoral and antimetastatic activity in vivo, NCI-H460 metastatic clone; parameters: species or system CD1 nude mice; conditions: for antimetastatic effect on spontaneous lung metastases: NCI-H460 metastatic clone injected subcutaneously; for % inhibition of lung metastases / TVI %: acetyl L-carnitine 200 mg/kg po qdx5/wx4w, cisplatin 5 mg/kg iv q7dx4
Method: (§3) Anti-tumoral activity in vivo (CD1 Nude mouse) using five different tumoral cell lines.
(§4) The tumors were generated by subcutaneous injection in the right flank of CD1 nude mice of NCI-H460 tumor cells (3×10^6/100 μl/mouse), in 0.1 ml medium Tc199.
(§5) Treatments started when tumors were palpable, 8 mice per group were used.
(§6) Acetyl L-carnitine was administered po (oral administration) at 200 mg/kg according to the schedule qdx5/w (once per day for 5 days per week).
(§7) Tumor volume (TV) was calculated biweekly by measuring the diameter of the tumors with a Vernier caliper according to the formula
(§8) where d and D are the shortest and longest diameters, respectively. The efficacy of the drug treatment was assessed as the tumor volume inhibition according to the formula reported underneath: […]

[5] = system: NCI-H460 NSCLC tumor cell line; assay: Anti-proliferative activity in vitro (MTT assay), NCI-H460; type: cell-based; conditions: 10 mM, 72 h of treatment, 0.1% FBS
Method: as §1, §2

[6] = system: Human A549 NSCLC cell line; assay: Anti-tumoral activity in vivo, A549 subcutaneous tumor; parameters: species or system CD1 nude mice; conditions: acetyl L-carnitine 200 mg/kg po qdx5/wx4w, cisplatin 4 mg/kg ip q4dx6
Method: as §3
The tumors were generated by subcutaneous injection in the right flank of CD1 nude mice of A549 tumor cells (3×10^6/100 μl/mouse) in 0.1 ml medium Tc199.
as §5, §6, §7, §8

A2780 ADR cell line = assay: Anti-tumoral activity in vivo, A2780 ADR subcutaneous tumor; parameters: species or system CD1 nude mice; conditions: acetyl L-carnitine 200 mg/kg po qdx5/wx3w, doxorubicin 6 mg/kg iv q7dx3
Method: as §3
The tumors were generated by subcutaneous injection in the right flank of CD1 nude mice of A2780 ADR tumor cells (5×10^6/100 μl/mouse) in 0.1 ml medium Tc199.
as §5, §6
The reference compound doxorubicin was delivered intravenously according to the schedule q7dx3, at a dose of 6 mg/kg.
as §7, §8

NCI-H460 cell line = assay: Anti-tumoral activity in vivo, NCI-H460 subcutaneous tumor; parameters: species or system CD1 nude mice; conditions: acetyl L-carnitine 200 mg/kg po qdx5/wx4w; cisplatin 4 mg/kg ip q4dx5
Method: as §3, §4, §5, §6, §7, §8

[7] = system: A2780/Dx multidrug-resistant ovarian tumor cell line; assay: Anti-proliferative activity in vitro (MTT assay), A2780/Dx; type: cell-based; conditions: 10 mM, 6 days of treatment, 0.1% FBS
Method: as §1, §2

NCI-H1650 cell line = assay: Anti-tumoral activity in vivo, NCI-H1650 subcutaneous tumor; parameters: species or system CD1 nude mice; conditions: acetyl L-carnitine 200 mg/kg po qdx5/wx3w; cisplatin 4 mg/kg ip q4dx6
Method: as §3
The tumors were generated by subcutaneous injection in the right flank of CD1 nude mice of NCI-H1650 tumor cells (5×10^6/200 μl/mouse) in suspension in 0.1 ml medium Tc199+0.1 ml Matrigel.
as §5, §6, §7, §8

In the case of `CC(=O)O[C@H](CC(=O)[O-])C[N+](C)(C)C` [acetyl L-carnitine (ALC)], the “effect on the formation of lung metastases” value (tumour mass) is listed as “significant inhibitory effect”.
For `C[N+](C)(C)C[C@H](O)CC(=O)[O-]` [L-carnitine], the “potentiation of the cytotoxic activity of cisplatin” value ([1]; L-carnitine 200 mg/mice/day given chronically) was “not able to potentiate the cytotoxic activity of cisplatin”.
For `CC(=O)O[C@H]1C(=O)[C@@]2(C)[C@H]([C@H](OC(=O)c3ccccc3)[C@]3(O)C[C@H](OC(=O)[C@H](O)[C@@H](NC(=O)c4ccccc4)c4ccccc4)C(C)=C1C3(C)C)[C@]1(OC(C)=O)CO[C@@H]1C[C@@H]2O` [Paclitaxel, paclitaxel, reference compound], the “inhibition of tumour growth (TVI)” value (tumour mass) is given as 88%.
With `CC(=O)O[C@H](CC(=O)[O-])C[N+](C)(C)C` [Acetyl L-carnitine, acetyl L-carnitine] the “Tumor cell inhibition %” value ([2]; 10 mM, 72 h of exposure followed by 72 h of recovery, 0.1% FBS, P 0.0037 vs control) was 24%, the “antiproliferative activity compared with cisplatin” value ([2]; 72 h of exposure, medium containing 0.1% FBS) was “statistically significant more active than cisplatin” and the “Tumor cell inhibition %” value ([3]; P <0.001) was 41%. The “Absorbance ± SE at 570 nm” value ([3]; control 484 ± 25) was 285 ± 11, the “antimetastatic effect on spontaneous lung metastases” value [4] was “statistically significant antimetastatic effect” and the “% inhibition of lung metastases” value [4] was 50%. The TVI % [4] was 34 ± 5%, the “Tumor cell inhibition %” value ([5]; P <0.001) was 32% and the “Absorbance ± SE at 570 nm” value ([5]; control 745 ± 18) was 509 ± 8. The TVI % [6] was 27 ± 3%, the TVI % ([6]; listed as acetyl L-carnitine) was 27% and the TVI % (A2780 ADR cell line) was 28 ± 11%. For the same molecule, the TVI % (A2780 ADR cell line; listed as acetyl L-carnitine) was 28%, the “TVI % ± SE” value (NCI-H460 cell line) was 40 ± 6% and the “Tumor cell inhibition %” value [7] was 29%. For the same molecule, the “Absorbance ± SE at 570 nm” value ([7]; control 331 ± 18) was 234 ± 16, the TVI % (NCI-H1650 cell line) was 19 ± 4% and the “effect on tumour growth” value (tumour mass) was “no effect on tumour growth”.
With `COc1cccc2c1C(=O)c1c(O)c3c(c(O)c1C2=O)C[C@@](O)(C(=O)CO)C[C@@H]3O[C@H]1C[C@H](N)[C@H](O)[C@H](C)O1` [Doxorubicin, doxorubicin, reference compound] the TVI % (A2780 ADR cell line) was 60 ± 11%.
With `N.N.[Cl][Pt][Cl]` [Cisplatin, cisplatin, reference compound] the “TVI % ± SE +32” value ([1]; day +32, cisplatin 4 mg/kg ip q4d/wx3w, L-carnitine 200 mg/kg po qdx5/wx3w) was 80 ± 21%, the “antimetastatic effect on spontaneous lung metastases” value [4] was “ineffective” and the “% inhibition of lung metastases” value [4] was 0%. For the same molecule, the TVI % [4] was 41 ± 5%, the TVI % [6] was 49 ± 13% and the TVI % ([6]; listed as cisplatin) was 49%. For the same molecule, the TVI % (A2780 ADR cell line) was 60%, the “TVI % ± SE” value (NCI-H460 cell line) was 41 ± 5% and the TVI % (NCI-H1650 cell line) was 23 ± 3%.
